These results are taken from publication PMC11277192 (International Journal of Molecular Sciences, 2024).

Each structure is given as a SMILES string.

In one assay the test system is MOR. The arrangement: method as in PMID 35412886. Conditions: 10 µM; cited from earlier work.
In assay [1] the target is T1, CB2 receptor (Homo sapiens, UniProt P34972).
T1 construct: host or cells: CHO-K1 (from the C2 catalogue suffix and 'same protocol' as CB1)
Description: Radioligand binding assay, displacement of [3H]-CP55940 at CB2. Conditions: 1 µM compound; 100% = 1 µM WIN55212-2. (Displacement assays read how much labelled ligand stays bound in the presence of the test substance.)

The next assay concerns the target T2, 5HT-1A receptor (Homo sapiens, UniProt P08908).
T2 sequence (P08908 1-422): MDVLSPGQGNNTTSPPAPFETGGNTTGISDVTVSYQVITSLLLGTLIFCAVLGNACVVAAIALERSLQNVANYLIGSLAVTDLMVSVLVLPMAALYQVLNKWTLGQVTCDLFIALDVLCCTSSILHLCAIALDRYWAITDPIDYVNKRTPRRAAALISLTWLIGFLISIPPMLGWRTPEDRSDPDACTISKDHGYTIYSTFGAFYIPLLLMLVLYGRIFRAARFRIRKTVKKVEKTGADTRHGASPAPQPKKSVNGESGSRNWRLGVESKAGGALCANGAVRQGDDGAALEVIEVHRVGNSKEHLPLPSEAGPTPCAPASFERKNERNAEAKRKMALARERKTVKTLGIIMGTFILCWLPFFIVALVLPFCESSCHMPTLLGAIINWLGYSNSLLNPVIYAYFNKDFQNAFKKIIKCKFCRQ
Description: 5HT-1A agonist PathHunter β-arrestin assay. The arrangement: Emax: dose or concentration left out as unconfirmed. To be noted: for Emax: CHO-K1, read-out: 5HT-1A agonism, % of the maximum response of serotonin.

The target of assay [2] is T1, CB2 receptor. Briefly: CB2 antagonist cAMP assay (HitHunter cAMP XS+), CP55,940 challenge. It counts as cell-based. Conditions: for Emax: read-out: CB2 antagonist activity, % of the maximum effect of SR144528, highest tested concentration (12 µM), CP55,940 1 nM. In general terms: Changes in cAMP serve as a functional read-out for many G protein-coupled receptors.
A further assay has as its target T3, dopamine D2S receptor (Homo sapiens, UniProt P14416).
T3 construct: host or cells: CHO-K1
Description: D2S agonist HitHunter cAMP XS+ assay. Format: cell-based. Also on record: Emax: dose or concentration left out as unconfirmed.

Assay [3] concerns the target T4, mu-opioid receptor (MOR, OPRM1) (Homo sapiens, UniProt P35372).
T4 construct: host or cells: U2OS (methods); the results text b24 says CHO-K1
It counts as cell-based. Conditions: for Increase in the met-enkephalin internalization signal: 10 µM compound, 30 min pre-treatment, then 1 µM met-enkephalin.

In a further assay the target is T5, CB1 receptor (Homo sapiens, UniProt P21554).
T5 construct: host or cells: CHO-K1
T5 sequence (P21554 whole entry): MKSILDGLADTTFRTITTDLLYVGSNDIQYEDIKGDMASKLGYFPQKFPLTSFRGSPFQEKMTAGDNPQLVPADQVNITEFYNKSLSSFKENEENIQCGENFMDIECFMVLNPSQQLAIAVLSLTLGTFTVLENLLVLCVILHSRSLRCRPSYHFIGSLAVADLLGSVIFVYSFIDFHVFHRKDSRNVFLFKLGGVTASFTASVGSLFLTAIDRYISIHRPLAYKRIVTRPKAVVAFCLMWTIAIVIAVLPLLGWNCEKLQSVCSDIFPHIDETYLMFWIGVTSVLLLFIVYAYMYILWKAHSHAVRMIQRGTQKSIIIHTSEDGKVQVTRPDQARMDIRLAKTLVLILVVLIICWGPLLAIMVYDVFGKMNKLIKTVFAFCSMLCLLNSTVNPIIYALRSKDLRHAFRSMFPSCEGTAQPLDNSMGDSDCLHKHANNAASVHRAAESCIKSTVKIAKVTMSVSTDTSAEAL
Description: CB1 antagonist cAMP assay (HitHunter cAMP XS+), CP55,940 challenge. Format: cell-based. To be noted: for Emax: CHO-K1, read-out: CB1 antagonist activity, % of the maximum response of AM251; for Concentration at which CB1 antagonist activity above the baseline appeared: CP55,940 1 nM, CHO-K1.

In the next assay the test system is mice. Also on record: method as in PMID 31889124. Conditions: doses 2.5 to 10 mg/kg; cited from earlier work.

T4 sequence (P35372 whole entry): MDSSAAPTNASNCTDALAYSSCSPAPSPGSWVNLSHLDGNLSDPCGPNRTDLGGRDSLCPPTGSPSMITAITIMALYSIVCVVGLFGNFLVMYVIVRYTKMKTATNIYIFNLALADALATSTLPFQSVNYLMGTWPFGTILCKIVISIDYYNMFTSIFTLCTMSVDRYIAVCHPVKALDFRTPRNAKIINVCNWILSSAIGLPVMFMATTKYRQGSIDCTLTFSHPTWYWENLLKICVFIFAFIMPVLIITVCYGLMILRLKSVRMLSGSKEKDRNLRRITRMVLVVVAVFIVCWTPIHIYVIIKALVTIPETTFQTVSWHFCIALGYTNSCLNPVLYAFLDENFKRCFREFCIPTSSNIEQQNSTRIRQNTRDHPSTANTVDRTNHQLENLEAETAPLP
T1 sequence (P34972 whole entry): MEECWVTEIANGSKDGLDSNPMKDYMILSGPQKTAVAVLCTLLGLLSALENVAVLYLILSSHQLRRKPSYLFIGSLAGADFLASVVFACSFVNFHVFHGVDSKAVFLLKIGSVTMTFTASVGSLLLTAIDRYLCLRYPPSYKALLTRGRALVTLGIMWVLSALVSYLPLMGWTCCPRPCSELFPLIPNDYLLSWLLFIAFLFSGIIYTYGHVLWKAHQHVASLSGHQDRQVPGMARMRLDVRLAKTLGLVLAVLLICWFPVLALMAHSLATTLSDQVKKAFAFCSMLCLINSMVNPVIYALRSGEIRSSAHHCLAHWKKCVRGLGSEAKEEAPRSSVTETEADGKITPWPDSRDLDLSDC
T3 sequence (P14416 1-414 isoform P14416-2): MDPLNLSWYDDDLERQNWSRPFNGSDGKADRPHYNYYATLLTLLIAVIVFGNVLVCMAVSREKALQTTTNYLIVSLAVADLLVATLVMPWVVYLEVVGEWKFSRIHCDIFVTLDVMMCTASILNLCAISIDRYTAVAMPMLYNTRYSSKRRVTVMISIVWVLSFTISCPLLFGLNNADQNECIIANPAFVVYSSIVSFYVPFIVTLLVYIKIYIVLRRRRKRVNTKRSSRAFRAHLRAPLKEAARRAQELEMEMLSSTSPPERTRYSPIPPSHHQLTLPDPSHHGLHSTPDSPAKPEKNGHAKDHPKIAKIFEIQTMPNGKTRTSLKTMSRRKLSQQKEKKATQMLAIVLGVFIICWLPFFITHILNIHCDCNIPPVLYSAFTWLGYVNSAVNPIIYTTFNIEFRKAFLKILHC

For `COc1ccc(C2SCCN2S(=O)(=O)c2ccc(Cl)cc2)cc1Br` (stereo not drawn) [BMS-986122], the “Activity of MOR in GTP turnover rate assay” value in the assay with MOR is reported as 166%.

In general, EC50 refers to the midpoint of the concentration-response curve. In the case of `C=C(C)[C@@H]1CCC(C)=C[C@H]1c1c(O)cc(CCCCC)cc1O` [CBD, Cannabidiol, reference compound], the “Displacement of radiolabeled CP55940 at the CB2 binding site” value at CB2 receptor [1] was “approximately 50%”. Further, the EC50 on 5HT-1A receptor was greater than 12 µM. The Emax on 5HT-1A receptor was roughly 20%; on CB2 receptor [2], roughly 33%; on dopamine D2S receptor (CHO-K1, read-out: D2S agonist activity, % maximum response of dopamine), 10.7%; at CB1 receptor it was roughly 20%. Also, the “Increase in the met-enkephalin internalization signal” value in assay [3] came out at 18%. For the same molecule, the “Concentration at which CB1 antagonist activity above the baseline appeared” value at CB1 receptor was found to be 3 µM.

Take `C=C(C)[C@@H]1CCC(C)=C[C@H]1c1c(O)cc(CCCCCCC)cc1O` [CBDP, cannabidiphorol]: the “Displacement of radiolabeled CP55940 at the CB2 binding site” value at CB2 receptor [1] was “approximately 50%”. In addition, the EC50 at 5HT-1A receptor was greater than 12 µM. The Emax was roughly 20% on 5HT-1A receptor, roughly 23% at CB2 receptor [2] and roughly 20% at CB1 receptor. Besides, the IC50 on CB2 receptor [2] (read-out: CB2 antagonist IC50 (not reached within tested concentrations)) and on CB1 receptor (read-out: CB1 antagonist IC50 (not reached within tested range)) was greater than 12 µM in each case. The “D2S agonism (in words)” value at dopamine D2S receptor (within the tested concentration range (up to 12 µM)) was “did not show any sign of agonism”. Also, in assay [3] (3 µM compound and 1 µM met-enkephalin), the “Met-enkephalin-induced mu-opioid internalization (in words)” value was “significant increase”. In addition, the “Increase in the met-enkephalin internalization signal” value in assay [3] amounted to 37%. In addition, the “Concentration at which CB1 antagonist activity above the baseline appeared” value on CB1 receptor amounted to 3 µM.

With `CCCCCCCc1cc(O)c2c(c1)OC(C)(C)[C@@H]1CCC(C)=C[C@@H]21` [Δ9-THCP, tetrahydrocannabiphorol], the “In vivo effects in mice” value in the assay with mice was “induce THC-like hypomotility, analgesia, and catalepsy”.
